Measured values from the supplement of paper PMC8671470.
± gives the standard deviation of the averaged measurements.

Tested on: HL-60
Experiment: cell viability (% survival relative to DMSO control); higher = less cytotoxic
Settings: 72 h
How it was run: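 HL-60 cells in RPMI 1640 with 10% FBS were rescreened against the full library on 384-well plates at five tenfold concentrations, 1–10,000 nM, in duplicate. Each screen was run with DMSO or 100 nM of one of three metabolic inhibitors, for 72 h at 37 °C, 5% CO2. Viability was read by CellTiter-Glo and normalised to DMSO and 10 μM proteasome-inhibitor wells. Where given, area under the curve came from four-parameter log-logistic fits (drc, PharmacoGx).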

[1] = 0.001 µM, co-treatment: AZD3965 100 nM
[2] = 0.001 µM, co-treatment: DMSO vehicle
[3] = 0.001 µM, co-treatment: GSK2194069 100 nM
[4] = 0.001 µM, co-treatment: pictilisib 100 nM
[5] = 0.01 µM, co-treatment: AZD3965 100 nM
[6] = 0.01 µM, co-treatment: DMSO vehicle
[7] = 0.01 µM, co-treatment: GSK2194069 100 nM
[8] = 0.01 µM, co-treatment: pictilisib 100 nM
[9] = 0.1 µM, co-treatment: AZD3965 100 nM
[10] = 0.1 µM, co-treatment: DMSO vehicle
[11] = 0.1 µM, co-treatment: GSK2194069 100 nM
[12] = 0.1 µM, co-treatment: pictilisib 100 nM
[13] = 1 µM, co-treatment: AZD3965 100 nM
[14] = 1 µM, co-treatment: DMSO vehicle
[15] = 1 µM, co-treatment: GSK2194069 100 nM
[16] = 1 µM, co-treatment: pictilisib 100 nM
[17] = 10 µM, co-treatment: AZD3965 100 nM
[18] = 10 µM, co-treatment: DMSO vehicle
[19] = 10 µM, co-treatment: GSK2194069 100 nM
[20] = 10 µM, co-treatment: pictilisib 100 nM

SMILES | cell viability [1] | cell viability [2] | cell viability [3] | cell viability [4] | cell viability [5] | cell viability [6] | cell viability [7] | cell viability [8] | cell viability [9] | cell viability [10] | cell viability [11] | cell viability [12] | cell viability [13] | cell viability [14] | cell viability [15] | cell viability [16] | cell viability [17] | cell viability [18] | cell viability [19] | cell viability [20]
CC(/C=C1\SC(=S)N(CC(=O)O)C1=O)=C\c1ccccc1 [Epalrestat] | 102 ± 1.1% | 100 ± 6.5% | 102 ± 5.9% | 92 ± 4.1% | 64.9 ± 48% | 79.3 ± 39% | 79.1 ± 29% | 75.1 ± 35% | 105.5 ± 0.65% | 102 ± 4% | 109 ± 3.6% | 97.1 ± 7.8% | 101.8 ± 0.5% | 100.82 ± 0.007% | 107.58 ± 0.028% | 95.4 ± 13% | 87.6 ± 2.7% | 94.16 ± 0.38% | 94.2 ± 4.2% | 88.6 ± 2.3%
CCOC(=O)[C@@]1(CCCCCCOc2ccc(Cl)cc2)CO1 [Etomoxir] | 102.9 ± 0.64% | 103 ± 1.2% | 106 ± 3.9% | 100 ± 5.9% | 84.3 ± 34% | 99.54 ± 0.17% | 92 ± 16% | 80.2 ± 27% | 106 ± 3.8% | 102 ± 3.4% | 103.8 ± 0.98% | 113 ± 5% | 87.5 ± 11% | 86.5 ± 21% | 77.9 ± 16% | 102 ± 3.8% | 109 ± 1.6% | 106 ± 1.7% | 100 ± 6.6% | 98 ± 6.5%
Cc1c(-c2ccccc2)oc2c(C(=O)OCCN3CCCCC3)cccc2c1=O.Cl [Flavoxate] | 90.8 ± 13% | 99.7 ± 1.6% | 82.5 ± 21% | 98.6 ± 1% | 101.5 ± 0.24% | 100 ± 1.1% | 101 ± 2.1% | 105 ± 3.5% | 109 ± 9.9% | 104 ± 2.8% | 105 ± 11% | 110 ± 16% | 103 ± 3.7% | 95.5 ± 12% | 98.1 ± 9.8% | 101 ± 9.9% | 97.1 ± 5.2% | 98.8 ± 0.023% | 91.7 ± 8% | 91.7 ± 10%
O=C(O)CCc1ccc(NCc2cccc(Oc3ccccc3)c2)cc1 [GW9508] | 101 ± 1.3% | 95.5 ± 6.2% | 105 ± 9.8% | 99.4 ± 5.3% | 98.73 ± 0.68% | 99.12 ± 0.57% | 98.1 ± 2.8% | 90.3 ± 3.8% | 98 ± 3.5% | 101.3 ± 0.3% | 101 ± 2.4% | 90.9 ± 12% | 105 ± 4.1% | 99.6 ± 0.95% | 108 ± 8.4% | 97.1 ± 6.7% | 103 ± 3.2% | 98.5 ± 1.1% | 107 ± 3.9% | 100 ± 3.3%
c1ccc2c(c1)OCC(=C1NCCN1)O2 [Idazoxan] | 103 ± 1.6% | 99.03 ± 0.46% | 99.9 ± 1.9% | 104 ± 1.9% | 98 ± 3.2% | 101.2 ± 0.3% | 101 ± 1.7% | 102 ± 1.5% | 102 ± 3.3% | 100.8 ± 0.84% | 101.2 ± 0.31% | 93 ± 1.3% | 96 ± 5.5% | 101 ± 1.5% | 98.4 ± 4.8% | 95.1 ± 1.4% | 100 ± 2.2% | 98.4 ± 3.7% | 99.15 ± 0.27% | 98.7 ± 9.1%
C[C@]12O[C@H](C[C@]1(O)CO)n1c3ccccc3c3c4c(c5c6ccccc6n2c5c31)CNC4=O [Lestaurtinib] | 104 ± 3.9% | 98.1 ± 4.1% | 107 ± 9.9% | 102 ± 4.3% | 92.9 ± 13% | 70.9 ± 44% | 86.5 ± 36% | 66.2 ± 28% | 76.5 ± 4.3% | 86.9 ± 3.4% | 83.2 ± 7.7% | 53.5 ± 8.1% | 23.5 ± 3.5% | 26.6 ± 0.46% | 31 ± 4.3% | 20.3 ± 3.2% | -1.19 ± 0.32% | -1.8 ± 0.59% | -1.73 ± 0.11% | -2.07 ± 1.2%
O=C(O)c1nn(Cc2ccc(Cl)cc2Cl)c2ccccc12 [Lonidamine] | 96.3 ± 3.7% | 97.83 ± 0.75% | 96.6 ± 2.2% | 101 ± 1.6% | 90.8 ± 2% | 105 ± 1.4% | 97.05 ± 0.16% | 99.3 ± 12% | 100 ± 3.7% | 100.5 ± 0.34% | 98.9 ± 2.4% | 98.22 ± 0.36% | 101 ± 1.1% | 101 ± 1.2% | 101 ± 7.9% | 103 ± 7.6% | 95.4 ± 9.7% | 98.4 ± 5.4% | 99.8 ± 5.7% | 94.8 ± 8.1%
C1CCc2nnc(C34CC5CC(CC(C5)C3)C4)n2CC1 [MERCK-544] | 103 ± 3% | 98.4 ± 1.3% | 105 ± 1.7% | 97 ± 1.1% | 103.1 ± 0.36% | 103 ± 2.8% | 108 ± 2% | 109 ± 8.3% | 99.41 ± 0.58% | 98.1 ± 2.4% | 99.8 ± 1.6% | 96.63 ± 0.71% | 100.6 ± 0.51% | 99.7 ± 1.4% | 96.27 ± 0.66% | 95.52 ± 0.25% | 108 ± 2% | 101 ± 2.6% | 109 ± 5.7% | 102 ± 10%
CC(Cc1ccc(O)c(O)c1)C(C)Cc1ccc(O)c(O)c1 (stereo not given) [Masoprocol] | 103 ± 4.1% | 101.9 ± 0.67% | 102 ± 9.7% | 102 ± 5.4% | 100 ± 7.9% | 98.1 ± 2.7% | 100.9 ± 0.44% | 89.6 ± 7.2% | 98.5 ± 1.4% | 96.29 ± 0.34% | 98.6 ± 2.7% | 94 ± 5.3% | 92.8 ± 4.1% | 99.3 ± 1.9% | 96.6 ± 4.1% | 86.4 ± 1.2% | 10.8 ± 0.34% | 12.9 ± 3.7% | 21.8 ± 0.43% | 4.58 ± 1%
COc1c(C)c2c(c(O)c1C/C=C(\C)CCC(=O)O)C(=O)OC2 [Mycophenolic acid] | 96.8 ± 3.9% | 72.1 ± 34% | 85.6 ± 16% | 91.1 ± 12% | 89.8 ± 13% | 96.4 ± 5.6% | 86.3 ± 18% | 92.87 ± 0.34% | 99 ± 6.1% | 95.9 ± 2.7% | 94.33 ± 0.34% | 99.1 ± 7.1% | 113.3 ± 0.98% | 106.1 ± 0.96% | 103 ± 7.8% | 98.72 ± 0.17% | 31.9 ± 4.8% | 56.2 ± 3.4% | 55.8 ± 1.6% | 55.7 ± 1.7%
C1CCC(C(CC2CCCCN2)C2CCCCC2)CC1.O=C(O)/C=C\C(=O)O (stereo not given) [Perhexiline] | 101 ± 3.6% | 108 ± 3.6% | 104.6 ± 0.56% | 90.6 ± 16% | 95.4 ± 6.8% | 102 ± 4.9% | 91.3 ± 14% | 98.9 ± 25% | 108 ± 5.2% | 103 ± 3.9% | 99 ± 9.2% | 112.1 ± 0.54% | 99.1 ± 2.5% | 105 ± 2.4% | 86.4 ± 9.4% | 73.2 ± 25% | -0.971 ± 0.58% | -1.01 ± 1.6% | -1.86 ± 0.47% | -1.67 ± 0.61%
